The text below walks through data of patent US6743937B2, “Efficient method of synthesizing combretastatin A-4 prodrugs” (OxiGene, Inc., priority 2000, dated 2004).

The nature of data set [1]: Aqueous solubility at 25° C. as a function of pH. The data set is classed as physicochemical. The settings on record: for Aqueous solubility: 25° C., based on cis-CA4P free acid.
A short description of data set [2]: Moisture sorption at 25° C. The settings on record: for Loss on drying at 1% RH / Wt. gain at 30-70% RH / Wt. gain at > 70% RH: moisture sorption at 25° C. The data set is classed as physicochemical.
Data set [3] can be described thus: Solubility in organic solvents at 25° C. The settings on record: based on cis-CA4P free acid; for Solubility in Acetone: BQL = below quantitation limit of the HPLC method. The data set is classed as physicochemical.
The conditions of data set [4]: cited from earlier work.
Data set [5] can be described thus: Comparison of physical stability of Process A and Process B materials (DSC, TGA, powder-XRD, solubility). Conditions: based on the available data.

Turning to `COc1ccc(/C=C\c2cc(OC)c(OC)c(OC)c2)cc1OP(=O)([O-])[O-].[Na+].[Na+]` [Process A Product, combretastatin A-4 disodium phosphate], the Aqueous solubility amounted to 2.27 mg/mL in data set [1] (pH 0.6 (adjusted with HCl)); 0.83 mg/mL in data set [1] (pH 0.8 (adjusted with HCl)); 0.35 mg/mL in data set [1] (pH 1.2 (adjusted with HCl)); 77.4 mg/mL in data set [1] (pH 5.2 (adjusted with HCl)); 76.8 mg/mL in data set [1] (pH 5.6 (adjusted with HCl)); 169 mg/mL in data set [1] (pH 7.1 (adjusted with HCl)). Also, the Aqueous solubility in data set [1] (pH 7.2 (adjusted with HCl)) is reported as 204 mg/mL; in data set [1] (pH 7.8 (adjusted with HCl)), 208 mg/mL; in data set [1] (pH 9.4 (in water)), 213 (in water) mg/mL. Moreover, the “Hygroscopicity compared between products” value in data set [2] is “greater degree of hygroscopicity than the Product B product”. The “Loss on drying at 1% RH” value in data set [2] was 5.7%. Also, in data set [2], the “Wt. gain at 30-70% RH” value is 7-8.6%. Further, the “Wt. gain at > 70% RH” value in data set [2] is listed as 9-30%. Also, in data set [3], the “Solubility in Ethanol” value is “Ethanol = 0.18 mg/mL”. In data set [3], the “Solubility in Methanol” value is reported as “Methanol = 22.4 mg/mL”. The “Solubility in Acetone” value in data set [3] was “Acetone = 0.45 mg/mL”.
For `COc1ccc(/C=C\c2cc(OC)c(OC)c(OC)c2)cc1O` [combretastatin A-4], the Solubility in water result in data set [4] is listed as “extremely poor solubility in water”.
For `COc1ccc(/C=C\c2cc(OC)c(OC)c(OC)c2)cc1OP(=O)([O-])[O-].[Na+].[Na+]` [Process B Product, disodium salt of combretastatin A-4 phosphate], the Aqueous solubility is listed as 0.21 mg/mL in data set [1] (pH 0.8 (adjusted with HCl)); 0.25 mg/mL in data set [1] (pH 0.97 (adjusted with HCl)); 1.61 mg/mL in data set [1] (pH 2.20 (adjusted with HCl)); 5.35 mg/mL in data set [1] (pH 3.26 (adjusted with HCl)); 34.7 mg/mL in data set [1] (pH 6.96 (adjusted with HCl)); 81.2 mg/mL in data set [1] (pH 7.28 (adjusted with HCl)). The Aqueous solubility in data set [1] (pH 7.35 (adjusted with HCl)) is recorded as 94.3 mg/mL; in data set [1] (pH 8.40 (adjusted with HCl)), 115 mg/mL; in data set [1] (pH 9.4 (in water)) it was 118 (in water) mg/mL. Besides, the “Solubility compared between products” value in data set [1] (both aqueous and organic solvents at 25° C.) is recorded as “consistently lower solubility than the Process A product”. Also, the “Physical stability compared between products” value in data set [5] was “physically more stable material than Process A”. Besides, the “Loss on drying at 1% RH” value in data set [2] was determined as 6.6%. In data set [2], the “Wt. gain at 30-70% RH” value worked out at 3%. For the same compound, the “Wt. gain at > 70% RH” value in data set [2] was “upto 30%”. In data set [3], the “Solubility in Ethanol” value was “Ethanol = 0.096 mg/mL”. Besides, the “Solubility in Methanol” value in data set [3] was “Methanol = 1.77 mg/mL”. For the same compound, in data set [3], the “Solubility in Acetone” value is reported as “Acetone = BQL^$”.
